Data reported in PubChem BioAssay AID248 (DTP/NCI, 2004).
Where “and” joins values, the source holds several entries; their conditions need not be identical. Equal values may be shown once. Toxic doses and inconclusive results are not listed. Cut-off read from the data, not from the text of the source: active = T/C of 150% or more; inactive = T/C below 125%.

System: L1210 leukemia ip in BDF1 mice, survival T/C
Assay: NCI In Vivo Anticancer Drug Screen. Data for tumor model L1210 Leukemia (intraperitoneal) in B6D2F1 (BDF1) mice
Conditions: higher = longer survival
Summary of the method: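 Each compound was tested against a transplantable tumor grown in mice. The endpoint was survival, with treated animals benchmarked against vehicle controls as a simple ratio.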

[1] = endpoint: mean survival time, dose: 100.0 mg/kg/injection, schedule: Q04DX003 (ip), vehicle: saline
[2] = endpoint: mean survival time, dose: 200.0 mg/kg/injection, schedule: Q04DX003 (ip), vehicle: saline
[3] = endpoint: mean survival time, dose: 100.0 mg/kg/injection, schedule: Q04DX003 (ip), vehicle: Klucel (hydroxypropylcellulose) (HPC)
[4] = endpoint: mean survival time, dose: 200.0 mg/kg/injection, schedule: Q04DX003 (ip), vehicle: Klucel (hydroxypropylcellulose) (HPC)
[5] = endpoint: mean survival time, dose: 50.0 mg/kg/injection, schedule: Q04DX002 (ip), vehicle: saline
[6] = endpoint: mean survival time, dose: 100.0 mg/kg/injection, schedule: Q04DX002 (ip), vehicle: saline

Measured: T/C

COc1ccccc1OC(=O)Nc1ccc(S(=O)(=O)N(C)C)cc1
inactive: endpoint: mean survival time, dose: 100.0 mg/kg/injection, schedule: Q01DX001 (ip), vehicle: saline 97 % of control | [1] 97 % of control | endpoint: mean survival time, dose: 200.0 mg/kg/injection, schedule: Q01DX001 (ip), vehicle: saline 100 % of control | [2] 95 % of control | endpoint: mean survival time, dose: 400.0 mg/kg/injection, schedule: Q01DX001 (ip), vehicle: saline 91 % of control | endpoint: mean survival time, dose: 400.0 mg/kg/injection, schedule: Q04DX003 (ip), vehicle: saline 97 % of control

S=C([S][Sn]([c]1ccccc1)([c]1ccccc1)[c]1ccccc1)N(c1ccccc1)c1ccccc1
inactive: endpoint: mean survival time, dose: 100.0 mg/kg/injection, schedule: Q01DX001 (ip), vehicle: steriod suspending solution 89 % of control | endpoint: mean survival time, dose: 200.0 mg/kg/injection, schedule: Q01DX001 (ip), vehicle: steriod suspending solution 98 % of control | endpoint: mean survival time, dose: 400.0 mg/kg/injection, schedule: Q01DX001 (ip), vehicle: steriod suspending solution 104 % of control

Cc1ccc(S(=O)(=O)NCCC(Cl)(Cl)Cl)cc1
inactive: [3] 104 % of control | [4] 101 % of control | endpoint: mean survival time, dose: 400.0 mg/kg/injection, schedule: Q04DX003 (ip), vehicle: Klucel (hydroxypropylcellulose) (HPC) 98 % of control

Cc1ccc(S(=O)(=O)OCCOS(=O)(=O)c2ccc(C)cc2)cc1
inactive: [3] 90 % of control | [4] 87 % of control

CC1CC[N-]CC1.CC1CC[N-]CC1.CC1CC[N-]CC1.[Cl][Cr]([Cl])[Cl]
inactive: endpoint: mean survival time, dose: 100.0 mg/kg/injection, schedule: Q04DX003 (ip), vehicle: other 98 % of control | endpoint: mean survival time, dose: 200.0 mg/kg/injection, schedule: Q04DX003 (ip), vehicle: other 95 % of control | endpoint: mean survival time, dose: 400.0 mg/kg/injection, schedule: Q04DX003 (ip), vehicle: other 97 % of control

CCCCN=C(N)CCl
inactive: endpoint: mean survival time, dose: 25.0 mg/kg/injection, schedule: Q04DX002 (ip), vehicle: saline 106 % of control | [5] 95 % of control | [6] 124 % of control

CN(N=O)C(=O)N[C@@H](C=O)[C@@H](O)[C@H](O)[C@H](O)CO
inactive: endpoint: mean survival time, dose: 0.5 mg/kg/injection, schedule: Q03HX040 (ip), vehicle: other 94 % of control | endpoint: mean survival time, dose: 1.0 mg/kg/injection, schedule: Q03HX040 (ip), vehicle: other 98 % of control | endpoint: mean survival time, dose: 2.0 mg/kg/injection, schedule: Q03HX040 (ip), vehicle: other 92 % of control | endpoint: mean survival time, dose: 2.3 mg/kg/injection, schedule: Q01DX009 (ip), vehicle: other 96 % of control and 101 % of control | endpoint: mean survival time, dose: 4.0 mg/kg/injection, schedule: Q03HX040 (ip), vehicle: other 104 % of control | endpoint: mean survival time, dose: 4.5 mg/kg/injection, schedule: Q01DX009 (ip), vehicle: other 92 % of control and 105 % of control | endpoint: mean survival time, dose: 8.0 mg/kg/injection, schedule: Q03HX040 (ip), vehicle: other 112 % of control | endpoint: mean survival time, dose: 8.0 mg/kg/injection, schedule: Q## X009 (ip), vehicle: other 98 % of control | endpoint: mean survival time, dose: 9.0 mg/kg/injection, schedule: Q01DX009 (ip), vehicle: other 99 % of control and 111 % of control | endpoint: mean survival time, dose: 12.5 mg/kg/injection, schedule: Q01DX009 (ip), vehicle: saline 101 % of control and 107 % of control | endpoint: mean survival time, dose: 12.5 mg/kg/injection, schedule: Q01DX009 (ip), vehicle: water 104 % of control | endpoint: mean survival time, dose: 16.0 mg/kg/injection, schedule: Q01DX017 (ip), vehicle: other 107 % of control | endpoint: mean survival time, dose: 16.0 mg/kg/injection, schedule: Q03HX040 (ip), vehicle: other 110 % of control | endpoint: mean survival time, dose: 16.0 mg/kg/injection, schedule: Q## X009 (ip), vehicle: other 94 % of control | endpoint: mean survival time, dose: 17.0 mg/kg/injection, schedule: Q04DX002 (ip), vehicle: other 97 % of control and 113 % of control | endpoint: mean survival time, dose: 24.5 mg/kg/injection, schedule: Q01DX Z (ip), vehicle: water 112 % of control | endpoint: mean survival time, dose: 25.0 mg/kg/injection, schedule: Q01DX009 (ip), vehicle: other 120 % of control | endpoint: mean survival time, dose: 25.0 mg/kg/injection, schedule: Q01DX Z (ip), vehicle: water 115 % of control | endpoint: mean survival time, dose: 25.0 mg/kg/injection, schedule: Q04DX003 (ip), vehicle: saline 96 % of control and 100 % of control | endpoint: mean survival time, dose: 32.0 mg/kg/injection, schedule: Q01DX001 (ip), vehicle: other 100 % of control | endpoint: mean survival time, dose: 32.0 mg/kg/injection, schedule: Q02DX009 (ip), vehicle: other 112 % of control | endpoint: mean survival time, dose: 32.0 mg/kg/injection, schedule: Q04DX005 (ip), vehicle: other 101 % of control | endpoint: mean survival time, dose: 32.0 mg/kg/injection, schedule: Q08DX003 (ip), vehicle: other 101 % of control | endpoint: mean survival time, dose: 32.0 mg/kg/injection, schedule: Q## X009 (ip), vehicle: other 112 % of control | endpoint: mean survival time, dose: 49.5 mg/kg/injection, schedule: Q01DX Z (ip), vehicle: water 120 % of control | endpoint: mean survival time, dose: 50.0 mg/kg/injection, schedule: Q01DX009 (ip), vehicle: citric acid 110 % of control | [5] 104 % of control | endpoint: mean survival time, dose: 50.0 mg/kg/injection, schedule: Q04DX003 (ip), vehicle: saline 105 % of control and 110 % of control | endpoint: mean survival time, dose: 64.0 mg/kg/injection, schedule: Q01DX001 (ip), vehicle: other 105 % of control | endpoint: mean survival time, dose: 64.0 mg/kg/injection, schedule: Q04DX005 (ip), vehicle: other 111 % of control | endpoint: mean survival time, dose: 64.0 mg/kg/injection, schedule: Q08DX003 (ip), vehicle: other 104 % of control | endpoint: mean survival time, dose: 67.0 mg/kg/injection, schedule: Q01DX009 (ip), vehicle: citric acid 116 % of control | endpoint: mean survival time, dose: 100.0 mg/kg/injection, schedule: Q01DX001 (ip), vehicle: other 103 % of control | endpoint: mean survival time, dose: 100.0 mg/kg/injection, schedule: Q01DX009 (ip), vehicle: citric acid 123 % of control and 124 % of control and 89 % of control | endpoint: mean survival time, dose: 100.0 mg/kg/injection, schedule: Q01DX009 (ip), vehicle: other 118 % of control | endpoint: mean survival time, dose: 100.0 mg/kg/injection, schedule: Q01DX Z (ip), vehicle: water 117 % of control | [6] 120 % of control | [1] 97 % of control | endpoint: mean survival time, dose: 128.0 mg/kg/injection, schedule: Q01DX001 (ip), vehicle: other 114 % of control | endpoint: mean survival time, dose: 128.0 mg/kg/injection, schedule: Q02DX009 (ip), vehicle: other 117 % of control | endpoint: mean survival time, dose: 128.0 mg/kg/injection, schedule: Q04DX005 (ip), vehicle: other 118 % of control | endpoint: mean survival time, dose: 128.0 mg/kg/injection, schedule: Q08DX003 (ip), vehicle: other 111 % of control | endpoint: mean survival time, dose: 138.0 mg/kg/injection, schedule: Q01DX009 (ip), vehicle: other 92 % of control | endpoint: mean survival time, dose: 150.0 mg/kg/injection, schedule: Q01DX009 (ip), vehicle: citric acid 90 % of control | endpoint: mean survival time, dose: 200.0 mg/kg/injection, schedule: Q01DX001 (ip), vehicle: other 122 % of control | [2] 96 % of control and 97 % of control | endpoint: mean survival time, dose: 250.0 mg/kg/injection, schedule: Q01DX001 (ip), vehicle: citric acid 116 % of control | endpoint: mean survival time, dose: 256.0 mg/kg/injection, schedule: Q01DX001 (ip), vehicle: other 110 % of control | endpoint: mean survival time, dose: 256.0 mg/kg/injection, schedule: Q04DX005 (ip), vehicle: other 114 % of control | endpoint: mean survival time, dose: 256.0 mg/kg/injection, schedule: Q08DX003 (ip), vehicle: other 117 % of control | endpoint: mean survival time, dose: 300.0 mg/kg/injection, schedule: Q01DX001 (ip), vehicle: citric acid 118 % of control and 122 % of control | endpoint: mean survival time, dose: 300.0 mg/kg/injection, schedule: Q04DX002 (ip), vehicle: acid diluted with saline 93 % of control | endpoint: mean survival time, dose: 350.0 mg/kg/injection, schedule: Q01DX001 (ip), vehicle: citric acid 112 % of control | endpoint: mean survival time, dose: 400.0 mg/kg/injection, schedule: Q01DX001 (ip), vehicle: citric acid 111 % of control | endpoint: mean survival time, dose: 400.0 mg/kg/injection, schedule: Q01DX009 (ip), vehicle: saline 108 % of control | endpoint: mean survival time, dose: 400.0 mg/kg/injection, schedule: Q04DX002 (ip), vehicle: saline 93 % of control and 123 % of control | endpoint: mean survival time, dose: 518.0 mg/kg/injection, schedule: Q04DX002 (ip), vehicle: other 95 % of control | endpoint: median survival time, dose: 14.0 mg/kg/injection, schedule: Q01DX009 (ip), vehicle: Klucel (hydroxypropylcellulose) (HPC) 111 % of control | endpoint: median survival time, dose: 17.0 mg/kg/injection, schedule: Q01DX009 (ip), vehicle: water 108 % of control and 114 % of control | endpoint: median survival time, dose: 26.0 mg/kg/injection, schedule: Q01DX009 (ip), vehicle: water 104 % of control and 117 % of control | endpoint: median survival time, dose: 39.0 mg/kg/injection, schedule: Q01DX009 (ip), vehicle: Klucel (hydroxypropylcellulose) (HPC) 116 % of control | endpoint: median survival time, dose: 39.0 mg/kg/injection, schedule: Q01DX009 (ip), vehicle: water 111 % of control | endpoint: median survival time, dose: 87.0 mg/kg/injection, schedule: Q01DX009 (ip), vehicle: water 114 % of control | endpoint: median survival time, dose: 130.0 mg/kg/injection, schedule: Q01DX009 (ip), vehicle: water 86 % of control
